In data set [1] the target is T1, human melatonin 1 receptors (human MT1 receptors) (Homo sapiens, UniProt P48039).
T1 construct: expressed in transfected cells; membrane fraction used
Kind of data set: Melatonin receptor binding inhibitory test (2-[125I] Iodomelatonin), MT1. The settings on record: membrane fraction of CHO-hMelR7 cells, 25° C. for 2.5 hr. The method, then:
(§1) Melatonin receptor binding inhibitory test
(1) Preparation of CHO-hMelR7 Cells Expressing Human Melatonin 1 Receptors
A cDNA fragment (SEQ ID NO: 1) encoding full-length of human melatonin 1 receptors (human MT1 receptors) was incorporated into expression vector pAKKO-111H (former name pAKKO1.11H; Biochim Biophys Acta. Vol. 1219(2), pp. 251-259, 1994) to give plasmid pAKKO-hMelR7 for animal cell expression. CHO/dhfr-cells (ATCC, #CRL-9096) were plated at a concentration of 0.3×10^6 cells/dish in a 6 cm culture dish (Becton Dickinson), and cultured under the conditions of 37° C., 5% CO2 for 48 hr. The cells were transfected with pAKKO-hMelR7 plasmid DNA (5 μg) using Cellphect Transfection Kit (Amersham, #27-9268-01). The transfected cells were cultured in Dulbecco's modified Eagle medium (DMEM) (Sigma, #D6046) containing 10% dialyzed FBS (Biowest, #S180D), 1× Non-Essential Amino Acid (Invitrogen, #11140-050) and 50 μg/mL Gentamycin (Invitrogen, #15750-060), and the cell line that stably expressed the plasmid gene was selected. By a receptor binding assay using 2-[^125I] Iodomelatonin, CHO-hMelR7 cell line showing specific binding of 2-[^125I] Iodomelatonin was selected from the obtained clones.
(§2) (3) Preparation of Cellular Membrane Fraction of CHO Cell (CHO-hMelR7 and CHO-hMT2) Stably Expressing Human MT1 and MT2 Receptors
(§3) CHO-hMelR7 and CHO-hMT2 cells were plated using Cellfactory (Nunc, #170009) under the conditions of 1×10^8 cells/2000 mL/flask. The cells were grown to confluent, and recovered by the following method. As the medium for CHO-hMelR7 and CHO-hMT2, MEM α containing 10% FBS and penicillin/streptomycin was used. […] of geneticin was added to the medium for CHO-hMT2.
(§4) The medium was discarded, cells were washed twice with 200 mL of EDTA/PBS(−), 200 mL of EDTA/PBS(−) was further added, and the cells were stood still at room temperature for 20 min until they were released. The cells were recovered in four 50 mL tubes (Becton Dickinson, #352070), and centrifuged at 1,500 rpm for 10 min at 4° C. using a low speed cooling centrifuge (Hitachi, CF7D2). The supernatant was discarded, the pellets in the four tubes were suspended in 10 mL of PBS(−), and combined in one tube (Becton Dickinson, #352070). The mixture was further centrifuged at 1,500 rpm for 10 min at 4° C., and the obtained pellets were suspended in 20 mL of ice-cooled homogenizing buffer [10 mM NaHCO3, 5 mM EDTA, Protease inhibitor Complete (Roche), pH 7.4]. The cell suspension was homogenized 3 times using a polytron homogenizer at 20,000 rpm for 30 sec. The obtained homogenate was centrifuged (2,000 rpm, 10 min, 4° C.) using a low speed cooling centrifuge. The supernatant was recovered in an ultracentrifugation tube and ultracentrifuged (40,000 rpm, 60 min, 4° C.) using an ultracentrifuge (Beckman, L-90K). To the obtained pellets was added a suspending buffer [50 mM Tris-HCl, 1 mM EDTA, Protease inhibitor Complete (Roche), pH 7.4], and the pellets were suspended by pipetting. The protein concentration of this suspension was measured, diluted to 2 mg/mL to give cellular membrane fractions of CHO-hMelR7 and CHO-hMT2 cells. The membrane fractions were dispensed to 1.5 mL tubes (Eppendorf, #0030120.086) by 100 μL, preserved in a freezer (−80° C.) and used for a binding assay. Protein was quantified using BCA protein assay kit (Pierce) with BSA as the standard.
(§5) (4) Preparation of Membrane Fraction Suspension
(§6) Immediately before use, the membrane fractions of CHO-hMelR7 and CHO-hMT2 cells of the above-mentioned (3) were diluted 20-fold with assay buffer (50 mM Tris-HCl, pH 7.7).
(§7) (5) Preparation of 2-[^125I] Iodomelatonin Solution
(§8) 2-[^125I] Iodomelatonin (#NEX236, PerkinElmer) was diluted with the assay buffer to 400 pM for MT1 and 1 nM for MT2.
(§9) The assay buffer (80 μL) of the above-mentioned (4) was added to each well of a 96-well plate (type 3363, Corning). […]

The target of data set [2] is T2, human melatonin 2 receptors (human MT2 receptors) (Homo sapiens, UniProt P49286).
T2 construct: expressed in transfected cells; membrane fraction used
T2 sequence (P49286 1-362): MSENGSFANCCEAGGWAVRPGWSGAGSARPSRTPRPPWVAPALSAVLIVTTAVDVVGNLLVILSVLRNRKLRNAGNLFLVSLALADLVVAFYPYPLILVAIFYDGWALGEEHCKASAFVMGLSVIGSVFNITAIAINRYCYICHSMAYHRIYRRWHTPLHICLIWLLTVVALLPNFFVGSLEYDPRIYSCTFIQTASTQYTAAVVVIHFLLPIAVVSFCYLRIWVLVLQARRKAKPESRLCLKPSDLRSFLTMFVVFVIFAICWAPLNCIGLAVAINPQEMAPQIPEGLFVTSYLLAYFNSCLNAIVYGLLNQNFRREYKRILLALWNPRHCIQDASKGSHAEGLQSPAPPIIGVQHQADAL
Kind of data set: Melatonin receptor binding inhibitory test (2-[125I] Iodomelatonin), MT2. The settings on record: membrane fraction of CHO-hMT2 cells, 25° C. for 2.5 hr. The method, then:
as §1
(2) Preparation of CHO-hMT2 Cells Expressing Human Melatonin 2 Receptors
A cDNA fragment (SEQ ID NO: 2) encoding full-length of human melatonin 2 receptors (human MT2 receptors) was incorporated into expression vector pCMV-Script (Stratagene, #212220) to give the plasmid that was pCMV-human MT2 receptors expression vector for animal cell expression. CHO-K1 cells (ATCC, #CCL-61) were plated at the concentration of 1.5×10^5 cells/cm^2 in a 6 well plate (ASAHI TECHNO GLASS), and cultured under the conditions of 37° C., 5% CO2 for 24 hr. For gene transfection, solution obtained by blending pCMV-human MT2 receptors expression vector (1.9 μg), Lipofectamine Transfection Reagent (Invitrogen, #18324-012) (11.3 μL) and Minimum Essential Medium Eagle (MEM) medium (Sigma, M8042) (93.8 μL), and reacting at room temperature for 20 min was added to the cells per one well. The transfected cells were cultured in MEM medium containing 10% FBS (Life Technology) and 300 μg/mL Geneticin (GIBCO, #10131), and the cell line that stably expressed the plasmid gene was selected. By a receptor binding assay using 2-[^125I] Iodomelatonin, CHO-hMT2 cell line showing specific binding of 2-[^125I] Iodomelatonin was selected from the obtained clones.
as §2, §3, §4, §5, §6, §7, §8, §9

A value given as a limit tells only on which side of the number the result lay.

T1 sequence (P48039 whole entry): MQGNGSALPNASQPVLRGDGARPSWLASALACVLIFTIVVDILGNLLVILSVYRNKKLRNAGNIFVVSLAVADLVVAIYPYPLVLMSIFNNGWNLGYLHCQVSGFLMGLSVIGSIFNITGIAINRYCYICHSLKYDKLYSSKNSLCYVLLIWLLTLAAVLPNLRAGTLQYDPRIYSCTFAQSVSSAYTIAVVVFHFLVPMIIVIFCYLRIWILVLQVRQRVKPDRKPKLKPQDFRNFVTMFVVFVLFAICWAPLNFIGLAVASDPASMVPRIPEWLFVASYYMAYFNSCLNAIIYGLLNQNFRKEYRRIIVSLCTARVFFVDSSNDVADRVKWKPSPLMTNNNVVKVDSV

As usually defined, the IC50 is the concentration that gives 50% inhibition. `CC(=O)NCC[C@@H]1CCc2ccc3nn(C)c(Br)c3c21` [Example 25, N-{2-[(8S)-1-bromo-2-methyl-2,6,7,8-tetrahydrocyclopenta[e]indazol-8-yl]ethyl}acetamide]: the half-inhibitory concentration (IC50) in data set [1] and in data set [2] was no more than 100 nM each time.
Take `CC(=O)NCCC1CCc2ccc3nn(C)cc3c21` (stereo not shown) [Example 2, N-[2-(2-methyl-2,6,7,8-tetrahydrocyclopenta[e]indazol-8-yl)ethyl]acetamide]: the IC50 in data set [1] and in data set [2] was no more than 100 nM each time.
The melting point is the temperature, or range, at which the solid turns liquid. In turn, `CC(=O)NCCC1CCc2ccc3nn(C)c(C)c3c21` (stereo not shown) [Example 8, N-[2-(1,2-dimethyl-2,6,7,8-tetrahydrocyclopenta[e]indazol-8-yl)ethyl]acetamide] gave a melting point of 146 to 149 °C. Moreover, the IC50 in data set [1] was no more than 100 nM. Moreover, in data set [2], the IC50 is no more than 100 nM.
Compound `CC(=O)NCCC1CCc2c(F)cc3nn(C)cc3c21` (stereo not shown) [Example 28, N-[2-(5-fluoro-2-methyl-2,6,7,8-tetrahydrocyclopenta[e]indazol-8-yl)ethyl]acetamide] came in with a melting point of 116 to 119 °C. Moreover, the IC50 in data set [1] was no more than 100 nM. The compound further displayed an IC50 in data set [2] of no more than 100 nM.
For `CC(=O)NCCC1CCc2ccn3nc(-c4ccccc4)cc3c21` (stereo not shown) [Example 34, N-[2-(2-phenyl-8,9-dihydro-7H-cyclopenta[c]pyrazolo[1,5-a]pyridin-9-yl)ethyl]acetamide], the melting point fell in the range of 159 to 160 °C. Besides, the IC50 in data set [2] was no more than 100 nM.
`CC(=O)NCCC1CCc2ccn3ncc(C)c3c21` (stereo not shown) [Example 10, N-[2-(1-methyl-8,9-dihydro-7H-cyclopenta[c]pyrazolo[1,5-a]pyridin-9-yl)ethyl]acetamide]: the melting point lay within 121 to 122 °C.
`CCC(=O)NCCC1CCc2ccn3nccc3c21` (stereo not shown) [Example 12, N-[2-(8,9-dihydro-7H-cyclopenta[c]pyrazolo[1,5-a]pyridin-9-yl)ethyl]propanamide]: the melting point fell in the range of 72 to 73 °C. Further, the IC50 in data set [1] is no more than 100 nM. Besides, the IC50 in data set [2] was no more than 100 nM.
For `CCC(=O)NCCC1CCc2c(F)cc3nn(C)cc3c21` (stereo not shown) [Example 29, N-[2-(5-fluoro-2-methyl-2,6,7,8-tetrahydrocyclopenta[e]indazol-8-yl)ethyl]propanamide], the melting point fell in the range of 117 to 119 °C. In data set [1], this compound came in with an IC50 of no more than 100 nM. Also, in data set [2], the IC50 is no more than 100 nM.
As for `CCC(=O)NCC=C1CCc2ccc3nn(C)cc3c21` [Example 5, N-[2-(2-methyl-6,7-dihydrocyclopenta[e]indazol-8(2H)-ylidene)ethyl]propanamide], the melting point fell in the range of 185 to 187 °C. In addition, in data set [1], the IC50 is no more than 100 nM. Besides, in data set [2], the IC50 was no more than 100 nM.
`CC(=O)NCC[C@@H]1CCc2ccc3nn(C)c(F)c3c21` [Example 23, N-{2-[(8S)-1-fluoro-2-methyl-2,6,7,8-tetrahydrocyclopenta[e]indazol-8-yl]ethyl}acetamide] showed a melting point of 155 to 156 °C. Moreover, the IC50 in data set [1] is no more than 100 nM. In data set [2], the IC50 was no more than 100 nM.
In the case of `CCOC(=O)c1c(C)nn2ccc3c(c12)C(CCNC(C)=O)CC3` (stereo not shown) [Example 13, ethyl 9-[2-(acetylamino)ethyl]-2-methyl-8,9-dihydro-7H-cyclopenta[c]pyrazolo[1,5-a]pyridine-1-carboxylate], the melting point was 101 to 103 °C.
`CC(=O)NCCC1CCc2c(Cl)cc3nn(C)cc3c21` (stereo not shown) [Example 31, N-[2-(5-chloro-2-methyl-2,6,7,8-tetrahydrocyclopenta[e]indazol-8-yl)ethyl]acetamide] yielded a melting point of 143 to 144 °C. This compound also gave an IC50 in data set [1] of no more than 100 nM. Further, the concentration for half-maximal inhibition (IC50) in data set [2] is no more than 100 nM.
With `CCc1cc2c3c(ccn2n1)CCC3CCNC(C)=O` (stereo not shown) [Example 21, N-[2-(2-ethyl-8,9-dihydro-7H-cyclopenta[c]pyrazolo[1,5-a]pyridin-9-yl)ethyl]acetamide], the IC50 in data set [1] and in data set [2] was no more than 100 nM each time.
As to `CC(=O)NCC[C@@H]1CCc2ccn3nc(C)cc3c21` [Example 19, N-{2-[(9S)-2-methyl-8,9-dihydro-7H-cyclopenta[c]pyrazolo[1,5-a]pyridin-9-yl]ethyl}acetamide], the IC50 in data set [1] and in data set [2] was no more than 100 nM throughout.
Turning to `CCC(=O)NCCC1CCc2ccn3nc(C)cc3c21` (stereo not shown) [Example 32, N-[2-(2-methyl-8,9-dihydro-7H-cyclopenta[c]pyrazolo[1,5-a]pyridin-9-yl)ethyl]propanamide], the IC50 in data set [1] and in data set [2] was no more than 100 nM each time.
Take `CC(=O)NCCC1CCc2ccn3nc(C)cc3c21` (stereo not shown) [Example 18, N-[2-(2-methyl-8,9-dihydro-7H-cyclopenta[c]pyrazolo[1,5-a]pyridin-9-yl)ethyl]acetamide]: the IC50 in data set [1] and in data set [2] was no more than 100 nM in each case.
Consider `CC(=O)NCCC1CCc2ccc3nc(C)cn3c21` (stereo not shown) [Example 22, N-[2-(2-methyl-7,8-dihydro-6H-cyclopenta[e]imidazo[1,2-a]pyridin-8-yl)ethyl]acetamide], for which the IC50 in data set [1] and in data set [2] was no more than 100 nM each time.
On to `CC(=O)NCC[C@@H]1CCc2ccc3nn(C)cc3c21` [Example 3], for which the IC50 in data set [1] and in data set [2] was no more than 100 nM throughout.
As to `CCC(=O)NCCC1CCc2ccc3nn(C)cc3c21` (stereo not shown) [Example 6, N-[2-(2-methyl-2,6,7,8-tetrahydrocyclopenta[e]indazol-8-yl)ethyl]propanamide], the IC50 in data set [1] and in data set [2] was no more than 100 nM each time.

For the origin of these results see patent publication US8247429B2, “Tricyclic compound and pharmaceutical use thereof” (Takeda Pharmaceutical Company Limited, priority 2006, dated 2012).
